Laboratory results reported in article PMC7966987, “Insights into the catalytic properties of the mitochondrial rhomboid protease PARL” (The Journal of Biological Chemistry, 2021).
Where “and” joins values, the source holds several entries; their conditions need not be identical. Equal entries are not always repeated. Entries after “also recorded” stand apart in the source; their conditions may differ.

Tests used:
PARLΔ77 [1] = target: T1, PARLΔ77 (Homo sapiens, UniProt Q9H300); assay: IQ-peptide substrate cleavage kinetics, PARLΔ77 in POPE/POPC proteoliposomes lacking CL; type: biochemical; settings: pH 7.0, 37 °C, mean ± SEM, n=3
T1 construct: GFP-hexahistidine (behind a TEV cleavage site) (C, cleaved yes); made in house; host or cells: Pichia pastoris
T1 sequence (Q9H300 78-379): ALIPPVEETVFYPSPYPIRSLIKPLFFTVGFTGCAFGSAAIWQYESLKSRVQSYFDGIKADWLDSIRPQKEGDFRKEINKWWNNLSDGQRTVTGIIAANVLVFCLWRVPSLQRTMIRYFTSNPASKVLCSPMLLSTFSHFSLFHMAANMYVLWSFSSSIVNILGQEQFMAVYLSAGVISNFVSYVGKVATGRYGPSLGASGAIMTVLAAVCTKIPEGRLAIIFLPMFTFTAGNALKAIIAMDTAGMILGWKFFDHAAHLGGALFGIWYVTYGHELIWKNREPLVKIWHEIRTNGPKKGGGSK
Description: To examine if CL influences PARL activity in a membrane environment, we prepared PL samples containing β-truncated PARL and conducted detailed kinetic analysis with the three IQ-peptide substrates (Fig. 3B). Two independent PL samples were generated: the first consisted only of POPC and POPE, while the second also contained CL. […] When CL was omitted from the PL, we observed two to tenfold slower turnover rates of cleavage for IQ-peptide substrates by β-truncated PARL (Fig. 3B and Table S7).
(§1) Assays with FRET-PINK1^70–134 were conducted as previously described ([26]). For EDANS/Dabcyl 10-mer IQ peptides (PINK1, PGAM5, Smac/Diablo), lyophilized peptides were initially dissolved in DMSO to obtain a stock solution. The IQ peptide substrates in a concentration range of 0.1–70 μM were incubated with activity assay buffer (50 mM Tris-HCl pH 7.0, 150 mM NaCl, 10% glycerol, 0.1% DDM) in a 384-well black-bottomed plate at 37 °C for 30 min in a multiwell plate reader (SynergyMx, BioTek). For all concentrations of IQ peptide, the DMSO was kept constant at 5%. Following preincubation, PARL was added to a final concentration of 0.8 μM to initiate the cleavage reaction. Fluorescence readings were taken every 3 min over a 3 h time course at ƛex = 336 nm and ƛem = 490 nm. The initial velocity was determined from the fluorescence readings over the time course. For each substrate concentration, a no-enzyme control was subtracted to eliminate background fluorescence changes not related to substrate cleavage. Relative fluorescence units were converted to concentration (μM) by determining the maximum change in fluorescence observed for each substrate concentration when fully digested. GraphPad Prism software was used for Michaelis–Menten analysis of kinetic curves. All kinetic data were obtained using at least three biological replicates (different enzyme preparations) with technical duplicates for each experiment. For kinetic measurements in detergent with all three substrates, the activity assays were repeated at least five times. In addition, after each protease purification, the quality control of purified PARL was controlled by measuring its enzymatic activity. Minimum of three experimental replicates with two technical replicates were used for data analysis.
(§2) E. coli polar lipids (Avanti), 400 μg in chloroform, were dried under nitrogen stream in a glass tube to yield a thin film of lipid. The tube was incubated overnight in a desiccator to completely remove all traces of solvent. In total, 50 μl of water and DDM detergent was added to the lipid film for resuspension at room temperature for 10 min, followed by the addition of purified PARL (400 μg) in 50 mM Tris-HCl, pH 8.0, 150 mM NaCl, 20% glycerol, 0.1% DDM, to yield the final weight ratio of 1 PARL:1 lipid:2 detergent. The detergent was slowly removed by the addition of SM2 Biobeads (Bio-Rad) while stirring on ice for 6 h to allow for the generation of proteoliposomes (PL); the process was controlled by the regimen of Biobead addition. To purify the PL, 50%:20% sucrose density gradient ultracentrifugation was used. A TAMRA probe (ThermoFisher) was used to determine the orientation of reconstituted PARL, which specifically and covalently labels serine residues of an enzymatically active serine protease. In total, 2 μM of TAMRA probe was added to PL samples and incubated for 1 h, allowing the TAMRA probe to label only the outward-facing accessible active sites. The same amount of PL, but with 1% DDM added to dissolve lipid vesicles incubated with 2 μM of TAMRA probe at the same conditions, was used as a benchmark for 100% accessible protein amount. The reaction was quenched with addition of SDS-containing sample buffer and the protein samples were visualized with SDS-PAGE followed by fluorescent gel scanning. The bands were quantified by densitometry analysis. […]

PARLΔ77 [2] = target: T1, PARLΔ77; assay: IQ-peptide substrate cleavage kinetics, PARLΔ77 in proteoliposomes; type: biochemical; settings: for ranking of substrate cleavage: in proteoliposomes, by kcat, KM or kcat/KM
Description: To assess the activity of recombinant PARL toward known substrates in a lipid bilayer, full-length and β-truncated PARL were reconstituted in proteoliposomes (PLs) using Escherichia coli lipids that closely resemble the composition of the IMM ([31]). We determined that the EDANS/Dabcyl - FRET tags prevented incorporation of the substrates into PL; however, the substrate could still be cleaved since the active site is proposed to be near the lipid/water interface ([40], [41]) analogous to bacterial rhomboid proteases (Fig. 1). To calculate the specific activity of the protease, we quantified the fraction of PARL in the PLs with an outward facing active site using a membrane […] activity-based TAMRA-labeled fluorophosphonate probe ([42]). […] These values were used to calculate specific activity of the PARL protease. Next, we compared cleavage of three IQ-peptide substrates by reconstituted full-length mature PARLΔ55 and the β-truncated form, PARLΔ77 (Fig. 3, Tables S5 and S6).
as §1
as §2, with “sites.” for “sites. The same amount of PL, but with 1% DDM added to dissolve lipid vesicles incubated with 2 μM of TAMRA probe at the same conditions, was used as a benchmark for 100% accessible protein amount. The reaction was quenched with addition of SDS-containing sample buffer and the protein samples were visualized with SDS-PAGE followed by fluorescent gel scanning. The bands were quantified by densitometry analysis.”

| Substance | Km (PARLΔ77 [1]) | kcat (turnover rate) (PARLΔ77 [1]) | kcat/KM (catalytic efficiency) (PARLΔ77 [1]) | ranking of substrate cleavage (PARLΔ77 [2]) | turnover rate (PARLΔ77 [2]; PARLΔ77 in proteoliposomes) |
| --- | --- | --- | --- | --- | --- |
| (DABCYL)-AVFLAFGLGL-Glu(EDANS) [IQ-PINK1^99–108, internally quenched DABCYL/EDANS peptide substrate based on PINK1 PARL cleavage site] | 14 ± 5 µM | 0.0019 ± 0.00028 s⁻¹ | 140 ± 56 M⁻¹ s⁻¹ | – | – |
| (DABCYL)-AVFLSAVAVG-Glu(EDANS) [IQ-PGAM5^20–29, internally quenched DABCYL/EDANS peptide substrate based on PGAM5 PARL cleavage site] | 8 ± 3 µM | 0.0025 ± 0.00056 s⁻¹ | 278 ± 83 M⁻¹ s⁻¹ | the preferred substrate with the lowest KM and the highest catalytic efficiency; also recorded: cleaved with the highest efficiency | – |
| (DABCYL)-GVT LCAVPIA-Glu(EDANS) [IQ-Smac/Diablo^51–60, internally quenched DABCYL/EDANS peptide substrate based on Smac/Diablo PARL cleavage site] | 3.8 ± 1 µM | 0.00133 ± 8.3e-05 s⁻¹ | 333 ± 83 M⁻¹ s⁻¹ | the fastest | 1.0 ± 0.1 min⁻¹ and 1 min⁻¹ |
